How the values were obtained:
Type in all cases: cell-based
[1] = target: human GPR17 long isoform V96M (hGPR17L-V96M) (Homo sapiens, UniProt Q13304, V96M); test: calcium flux in GLUTag cells expressing hGPR17L-V96M
mouse GPR17 (mGPR17) = mouse GPR17 (mGPR17) (Mus musculus, UniProt Q6NS65); test: calcium flux in GLUTag cells expressing mGPR17
[2] = target: human GPR17 long isoform (hGPR17L) (Homo sapiens, UniProt Q13304)
Sequence of human GPR17 long isoform (hGPR17L) (Q13304 whole entry, canonical isoform): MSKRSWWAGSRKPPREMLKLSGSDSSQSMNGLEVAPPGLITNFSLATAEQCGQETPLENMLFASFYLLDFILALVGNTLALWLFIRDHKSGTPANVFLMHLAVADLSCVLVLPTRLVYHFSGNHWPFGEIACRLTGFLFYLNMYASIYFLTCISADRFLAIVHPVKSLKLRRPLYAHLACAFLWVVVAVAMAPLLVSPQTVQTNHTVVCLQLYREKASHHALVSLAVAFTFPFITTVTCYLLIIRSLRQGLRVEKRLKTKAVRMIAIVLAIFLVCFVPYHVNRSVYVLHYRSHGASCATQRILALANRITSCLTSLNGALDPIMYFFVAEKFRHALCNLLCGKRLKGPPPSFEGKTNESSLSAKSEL

Sequence of mouse GPR17 (mGPR17) (Q6NS65 whole entry, canonical isoform): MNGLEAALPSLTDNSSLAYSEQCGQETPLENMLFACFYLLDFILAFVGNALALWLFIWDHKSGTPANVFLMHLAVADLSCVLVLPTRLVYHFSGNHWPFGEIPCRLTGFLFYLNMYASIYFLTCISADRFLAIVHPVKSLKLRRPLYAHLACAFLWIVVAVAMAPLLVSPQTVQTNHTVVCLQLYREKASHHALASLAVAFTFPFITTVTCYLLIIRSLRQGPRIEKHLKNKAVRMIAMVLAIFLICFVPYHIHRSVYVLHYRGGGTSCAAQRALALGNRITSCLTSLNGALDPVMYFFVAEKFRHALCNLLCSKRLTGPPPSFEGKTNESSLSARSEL
Sequence of human GPR17 long isoform V96M (hGPR17L-V96M) (Q13304 whole entry V96M, canonical isoform): as the sequence (Q13304 whole entry, canonical isoform) above, with V96M counted along it

EC50 [1]: 580 nM
EC50 (mouse GPR17 (mGPR17)): 680 nM
IC50 [2]: 29 nM
SMILES: O=C(O)CCc1c(C(=O)O)[nH]c2cc(Cl)cc(Cl)c12 [MDL29,951]

Reference: article PMC11601441 (bioRxiv, 2024)
